Among the data in ChEMBL document CHEMBL1142838, “Design and synthesis of phthalimide-type histone deacetylase inhibitors” (Bioorg Med Chem Lett, 2005) are IC50 and EC50 values, retold here.

Chain of Histone deacetylase 1 (Q13547 whole entry): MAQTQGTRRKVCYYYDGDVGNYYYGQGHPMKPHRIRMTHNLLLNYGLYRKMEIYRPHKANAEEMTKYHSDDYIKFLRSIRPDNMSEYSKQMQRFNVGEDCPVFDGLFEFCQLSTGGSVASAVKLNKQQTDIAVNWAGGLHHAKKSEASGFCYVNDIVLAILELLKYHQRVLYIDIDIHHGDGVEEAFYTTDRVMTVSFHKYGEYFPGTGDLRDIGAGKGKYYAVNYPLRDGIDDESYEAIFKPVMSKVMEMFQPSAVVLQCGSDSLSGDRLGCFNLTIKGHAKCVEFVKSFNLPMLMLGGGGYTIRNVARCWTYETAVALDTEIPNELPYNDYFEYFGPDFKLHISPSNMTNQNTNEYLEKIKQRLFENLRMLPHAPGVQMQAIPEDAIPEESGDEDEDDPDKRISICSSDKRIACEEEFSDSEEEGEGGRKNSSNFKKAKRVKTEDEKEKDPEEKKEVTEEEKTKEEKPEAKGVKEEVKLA

The first assay concerns the target Histone deacetylase 1 (Homo sapiens, UniProt Q13547).
For orientation: IC50 means the concentration at which inhibition is half-maximal. Lower therefore signals higher potency. On to `O=C(/C=C/c1ccc2c(c1)C(=O)N(Cc1ccccc1)C2=O)NO`, for which the IC50 stood at 0.572 µM.

For a further assay, the target named is Histone deacetylase 4 (Homo sapiens, UniProt P56524).
Chain of Histone deacetylase 4 (P56524 whole entry): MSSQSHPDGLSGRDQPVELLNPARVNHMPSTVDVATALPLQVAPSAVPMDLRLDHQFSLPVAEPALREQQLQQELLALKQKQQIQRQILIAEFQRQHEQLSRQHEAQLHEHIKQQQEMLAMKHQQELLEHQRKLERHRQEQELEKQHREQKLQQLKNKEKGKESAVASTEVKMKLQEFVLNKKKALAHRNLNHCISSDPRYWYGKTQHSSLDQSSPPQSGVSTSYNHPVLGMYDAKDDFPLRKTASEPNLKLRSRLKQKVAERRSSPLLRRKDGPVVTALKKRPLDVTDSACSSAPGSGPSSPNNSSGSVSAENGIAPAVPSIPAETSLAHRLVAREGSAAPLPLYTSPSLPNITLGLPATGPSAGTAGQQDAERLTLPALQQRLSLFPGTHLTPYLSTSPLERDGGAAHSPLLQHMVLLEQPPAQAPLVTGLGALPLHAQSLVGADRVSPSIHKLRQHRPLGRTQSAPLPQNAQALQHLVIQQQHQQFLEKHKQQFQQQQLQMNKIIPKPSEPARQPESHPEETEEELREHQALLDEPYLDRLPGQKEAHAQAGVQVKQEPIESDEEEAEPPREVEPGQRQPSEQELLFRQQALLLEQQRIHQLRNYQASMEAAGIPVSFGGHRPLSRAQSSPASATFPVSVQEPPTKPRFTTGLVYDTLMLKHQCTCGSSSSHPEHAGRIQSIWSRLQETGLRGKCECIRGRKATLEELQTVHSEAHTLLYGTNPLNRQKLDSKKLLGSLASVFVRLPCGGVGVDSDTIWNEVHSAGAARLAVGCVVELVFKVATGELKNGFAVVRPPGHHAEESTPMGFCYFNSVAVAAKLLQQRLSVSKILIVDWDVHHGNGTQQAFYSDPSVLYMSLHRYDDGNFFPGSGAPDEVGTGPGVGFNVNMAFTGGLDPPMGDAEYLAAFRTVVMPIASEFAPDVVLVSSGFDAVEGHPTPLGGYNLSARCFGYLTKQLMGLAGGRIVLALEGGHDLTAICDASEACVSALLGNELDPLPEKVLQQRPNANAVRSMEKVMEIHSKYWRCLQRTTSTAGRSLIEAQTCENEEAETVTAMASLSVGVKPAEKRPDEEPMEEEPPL
Compound `O=C(/C=C/c1ccc2c(c1)C(=O)N(Cc1ccccc1)C2=O)NO` came in with an IC50 of 0.358 µM.

The next assay deals with T1, Protein deacetylase HDAC6 (Homo sapiens, UniProt Q9UBN7).
T1 sequence (Q9UBN7 whole entry): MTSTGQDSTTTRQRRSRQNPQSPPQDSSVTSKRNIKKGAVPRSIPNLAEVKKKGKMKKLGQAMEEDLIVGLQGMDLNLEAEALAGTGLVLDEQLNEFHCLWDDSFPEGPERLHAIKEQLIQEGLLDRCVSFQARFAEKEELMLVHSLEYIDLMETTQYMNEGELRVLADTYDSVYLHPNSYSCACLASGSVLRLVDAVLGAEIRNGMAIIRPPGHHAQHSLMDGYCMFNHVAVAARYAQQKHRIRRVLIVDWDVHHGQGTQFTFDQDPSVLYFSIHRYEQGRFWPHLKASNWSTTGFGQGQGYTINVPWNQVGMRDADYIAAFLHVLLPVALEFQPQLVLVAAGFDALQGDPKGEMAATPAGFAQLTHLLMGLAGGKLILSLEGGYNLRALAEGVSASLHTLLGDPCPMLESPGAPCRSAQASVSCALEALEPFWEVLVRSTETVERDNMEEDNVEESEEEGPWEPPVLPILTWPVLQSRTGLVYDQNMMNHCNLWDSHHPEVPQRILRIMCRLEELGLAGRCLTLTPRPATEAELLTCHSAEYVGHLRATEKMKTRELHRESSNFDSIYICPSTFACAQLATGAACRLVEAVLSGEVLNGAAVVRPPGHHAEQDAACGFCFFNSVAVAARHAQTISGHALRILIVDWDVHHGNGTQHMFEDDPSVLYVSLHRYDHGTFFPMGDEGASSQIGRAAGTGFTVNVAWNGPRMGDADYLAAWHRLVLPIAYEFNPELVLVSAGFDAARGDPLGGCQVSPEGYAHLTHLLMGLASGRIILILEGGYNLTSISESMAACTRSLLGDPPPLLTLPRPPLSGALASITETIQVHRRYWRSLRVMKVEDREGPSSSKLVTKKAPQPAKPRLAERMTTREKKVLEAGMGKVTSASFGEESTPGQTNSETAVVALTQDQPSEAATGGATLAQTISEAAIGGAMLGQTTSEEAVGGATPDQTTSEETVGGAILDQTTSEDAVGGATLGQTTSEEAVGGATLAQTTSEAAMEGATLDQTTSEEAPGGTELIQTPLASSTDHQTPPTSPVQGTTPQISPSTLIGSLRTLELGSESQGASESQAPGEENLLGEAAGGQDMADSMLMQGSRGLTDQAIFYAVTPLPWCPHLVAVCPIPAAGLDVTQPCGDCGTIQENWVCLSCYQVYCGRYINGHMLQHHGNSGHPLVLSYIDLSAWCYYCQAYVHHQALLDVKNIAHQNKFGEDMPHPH
In turn, `O=C(/C=C/c1ccc2c(c1)C(=O)N(Cc1ccccc1)C2=O)NO` showed a half-inhibitory concentration (IC50) of 0.709 µM.

Another assay addresses Histone deacetylase. Description: Effective concentration for inhibition of histone deacetylase. The assay is classed as protein assay, Homo sapiens.
What is called EC50 is the concentration that produces a half-maximal response. A low value points to higher potency in that assay. On to `O=C(/C=C/c1ccc2c(c1)C(=O)N(C(c1ccccc1)c1ccccc1)C2=O)NO`, for which the EC50 turned out to be 2.09 µM.
The same measure, in the same setting: as for `O=C(NO)c1ccc2c(c1)C(=O)N(c1ccccc1)C2=O`, the figure is 125 µM.
`O=C(/C=C/c1ccc2c(c1)C(=O)N(CC(c1ccccc1)c1ccccc1)C2=O)NO` registered an EC50 of 7.89 µM.
For the compound `C[C@H](c1ccccc1)N1C(=O)c2ccc(/C=C/C(=O)NO)cc2C1=O`, the EC50 worked out at 0.291 µM.
On the same count and under the same terms, the same measure for `C[C@@H](c1ccccc1)N1C(=O)c2ccc(/C=C/C(=O)NO)cc2C1=O`: 0.25 µM.
Consider `O=C(/C=C/c1ccc2c(c1)C(=O)N([C@@H](COC(=O)c1ccccc1)c1ccccc1)C2=O)NO`, for which the EC50 worked out at 3.79 µM.
In turn, `O=C(/C=C/c1ccc2c(c1)C(=O)N([C@H](COC(=O)c1ccccc1)c1ccccc1)C2=O)NO` came in with an EC50 of 0.763 µM.
Turning to `O=C(/C=C/c1ccc2c(c1)C(=O)N(c1ccccc1)C2=O)NO`, the EC50 is 2.08 µM.
The same measure, in the same setting: as for `O=C(/C=C/c1ccc2c(c1)C(=O)N(CCc1ccccc1)C2=O)NO`, the figure is 0.177 µM; as for `O=C(CCc1ccc2c(c1)C(=O)N(Cc1ccccc1)C2=O)NO`, 0.407 µM; as for `COc1ccc(CN2C(=O)c3ccc(/C=C/C(=O)NO)cc3C2=O)cc1`, 0.186 µM.
Same read-out and setting: as for `O=C(NO)c1ccc2c(c1)C(=O)N(CCc1ccccc1)C2=O`, the figure is 6.63 µM; as for `O=C(NO)c1ccc2c(c1)C(=O)N(Cc1ccccc1)C2=O`, 4.16 µM; as for `Cc1ccc(CN2C(=O)c3ccc(/C=C/C(=O)NO)cc3C2=O)cc1`, 0.474 µM.
In turn, `O=C(/C=C/c1ccc2c(c1)C(=O)N(Cc1ccccc1)C2=O)NO` registered an EC50 of 0.148 µM.
